The assay concerns HCV replicon. Briefly: HCV replicon replication assay (NPTII ELISA). It counts as cell-based, Hepatitis C virus (Huh-7 cells). The settings on record: Hepatitis C virus, Huh-7, 72 h, inhibition of HCV replicon replication in Huh-7 HCV replicon-containing cells, three days incubation, NPT level by ELISA; read-out: EC50. The method, then:
Compounds claimed herein are tested for the ability to inhibit viral replication of the Hepatitis C replicon in cultured cells in which the HCV replicon construct has been incorporated. The HCV replicon system was described by Bartenschlager, et. al (Science, 285, pp. 110-113 (1999)). The replicon system is predictive of in vivo anti-HCV activity; compounds that are active in humans uniformly evidence activity in the replicon assay.
In this assay HCV replicon containing cells are treated with different concentrations of the test compound to ascertain the ability of the test compound to suppress replication of the HCV replicon. As a positive control, HCV replicon-containing cells are treated with different concentrations of interferon alpha, a known inhibitor of HCV replication. The replicon assay system includes Neomycin Phosphotransferase (NPT) as a component of the replicon itself in order to detect the transcription of replicon gene products in the host cell. Cells in which the HCV replicon is actively replicating have high levels of NPT; the level of NPT is proportional to HCV replication. […] The NPT level of each sample is measured using a captured ELISA.
The HCV replicon contains, 5′-3′, the HCV-IRES, the neomycin phosphotransferase (neo) gene, the IRES of encephalomyocarditis virus, which directs translation of HCV sequences NS3 to NS5B, and the 3′-NTR. The sequence of the HCV replicon has been deposited in GenBank (Accession no. AJ242652).
The replicon is transfected into Huh-7 cells using standard methods such as electroporation.
The cells are then seeded onto 96-well plates at a density of 6000-7500 cells/100 microliters/well (6-7.5×10^5 cells/10 ml/plate). The plates are then incubated at 37° C. in a 5% CO2 incubator.
HCV replicon-containing cells are rinsed with once PBS once; 2 mls of trypsin are then added. Cells are incubated at 37° C. in a 5% CO2 incubator for 3-5 minutes. 10 mls of complete medium is added to stop the reaction. Cells are blown gently, put into a 15 ml tube, and spun at 1200 rpm for four minutes. The trypsin/medium solution is removed and 5 mls of medium (500 ml DMEM (high glucose)) from BRL catalog #12430-054; 50 mls 10% FBS, 5% Geneticin G418 (50 mg/ml, BRL catalog #10131-035), 5 ml MEM non-essential amino acids (100× BRL #11140-050) and 5 ml pen-strep (BRL #15140-148) is added. The cells and media are mixed carefully
Cells are plated with screening medium (500 ml DMEM (BRL #21063-029), 50 ml FBS (BRL #10082-147) and 5 ml MEM non-essential amino acid (BRL #11140-050) at 6000-7500 cells/100 μl/well of 96 well plate (6-7.5×10^5 cells/10 ml/plate). Plates are placed into 37° C. 5% CO2 incubator overnight.
The following morning, drugs (test compounds or interferon alpha) are diluted in 96 well U bottom plates with media or DMSO/media, depending on the final concentration chosen for screening. Generally for 6 concentrations of each test compounds ranging from 10 micromolar to 0.03 micromolar are applied. 100 μl of the test compound dilution is placed in wells of the 96 well plate containing the HCV replicon cells. Media without drug is added to some wells as a negative controls. DMSO is known to affect cell growth. Therefore, if drugs diluted in DMSO are used, all wells, including negative control (media only) and positive control (interferon alpha) wells, must contain the same concentration of DMSO, for single dose screening. The plates are incubated at 37° C. in a humidified 5% CO2 environment for three days.
On day four, the NTPII assay is quantitated. The medium is poured from the plates and the plates are washed once in 200 μl of PBS. The PBS is then decanted and the plates tapped in a paper towel to remove any remaining PBS. Cells are fixed in situ with 100 μl/well of pre-cooled (−20° C.) methanol:acetone (1:1) and the plates are placed at −20° C. for 30 minutes.
The fixing solution is poured from the plates and the plates allowed to air-dry completely (approximately one hour). […]
A general note: Replicon systems follow genome replication, usually without infectious particles.

Regarding `CCCCCOc1ccc(N(C(=O)C(=O)OC)c2nc(-c3cccnc3)cs2)cc1F` [Compound 27, methyl 2-((3-fluoro-4-(pentyloxy)phenyl)(4-(pyridin-3-yl)thiazol-2-yl)amino)-2-oxoacetate], the EC50 was less than 1000 nM. As for `CCCCCOc1ccc(N(C(=O)C(=O)OC)c2nc(-c3cccnc3)cs2)cc1C(F)(F)F` [Compound 28, methyl 2-oxo-2-((4-(pentyloxy)-3-(trifluoromethyl)phenyl)(4-(pyridin-3-yl)thiazol-2-yl)amino)acetate], the concentration giving a half-maximal response (EC50) was less than 1000 nM.

As to `CCCCCOc1ccc(N(C(C)=O)c2nc(CNC(C)=O)cs2)cc1C(F)(F)F` [Compound 29, N-(4-(acetamidomethyl)thiazol-2-yl)-N-(4-(pentyloxy)-3-(trifluoromethyl)phenyl)acetamide], the EC50 fell in the range of 1000 to 10000 nM. With `CCCCCOc1ccc(N(C(=O)C(=O)OC)c2nc(C(=O)Nc3cccnc3)cs2)cc1C(F)(F)F` [Compound 30, methyl 2-oxo-2-((4-(pentyloxy)-3-(trifluoromethyl)phenyl)(4-(pyridin-3-ylcarbamoyl)thiazol-2-yl)amino)acetate], the 50% effective concentration (EC50) is less than 1000 nM. For `CCCCCOc1ccc(N(C(=O)OC)c2nc(-c3cccnc3)cs2)cc1C(F)(F)F` [Compound 31, methyl 4-(pentyloxy)-3-(trifluoromethyl)phenyl(4-(pyridin-3-yl)thiazol-2-yl)carbamate], the EC50 was less than 1000 nM. Take `CCCCCOc1ccc(N(C(=O)C2CCCCC2)c2nc(-c3cccnc3)cs2)cc1C(F)(F)F` [Compound 32, N-(4-(pentyloxy)-3-(trifluoromethyl)phenyl)-N-(4-(pyridin-3-yl)thiazol-2-yl)cyclohexanecarboxamide]: the EC50 was less than 1000 nM. For the molecule `CCCCCOc1ccc(N(C(=O)COC(C)=O)c2nc(-c3cccnc3)cs2)cc1C(F)(F)F` [Compound 33, 2-oxo-2-((4-(pentyloxy)-3-(trifluoromethyl)phenyl)(4-(pyridin-3-yl)thiazol-2-yl)amino)ethyl acetate], the EC50 was less than 1000 nM. Under `CCCCCOc1ccc(N(C(=O)c2cc(C)on2)c2nc(-c3cccnc3)cs2)cc1C(F)(F)F` [Compound 34, 5-methyl-N-(4-(pentyloxy)-3-(trifluoromethyl)phenyl)-N-(4-(pyridin-3-yl)thiazol-2-yl)isoxazole-3-carboxamide] stands less than 1000 nM; under `CCCCCOc1ccc(N(C(=O)C(=O)OC)c2nc(-c3ccncc3)cs2)cc1C(F)(F)F` [Compound 35, methyl 2-oxo-2-((4-(pentyloxy)-3-(trifluoromethyl)phenyl)(4-(pyridin-4-yl)thiazol-2-yl)amino)acetate], less than 1000 nM; under `CCCCCOc1ccc(N(C(=O)OC)c2nc(-c3ccncc3)cs2)cc1C(F)(F)F` [Compound 36, methyl 4-(pentyloxy)-3-(trifluoromethyl)phenyl(4-(pyridin-4-yl)thiazol-2-yl)carbamate], less than 1000 nM.

Take `CCCCCOc1ccc(N(C(=O)C(=O)OC)c2nc(-c3ccc(F)cc3F)cs2)cc1C(F)(F)F` [Compound 37, methyl 2-((4-(2,4-difluorophenyl)thiazol-2-yl)(4-(pentyloxy)-3-(trifluoromethyl)phenyl)amino)-2-oxoacetate]: the EC50 is less than 1000 nM. On to `CCCCCOc1ccc(N(C(=O)C(=O)OC)c2nc(-c3ccc(F)cc3)cs2)cc1C(F)(F)F` [Compound 38, methyl 2-((4-(4-fluorophenyl)thiazol-2-yl)(4-(pentyloxy)-3-(trifluoromethyl)phenyl)amino)-2-oxoacetate], for which the EC50 was less than 1000 nM.

As for `CCCCCCCCc1ccc(N(C(=O)C(=O)OC)c2nc(-c3cccnc3)cs2)cc1` [Compound 39, methyl 2-((4-octylphenyl)(4-(pyridin-3-yl)thiazol-2-yl)amino)-2-oxoacetate], the EC50 was less than 1000 nM. With `CCCCCCCOc1ccc(N(C(=O)C(=O)OC)c2nc(-c3cccnc3)cs2)cc1` [Compound 40, methyl 2-((4-(heptyloxy)phenyl)(4-(pyridin-3-yl)thiazol-2-yl)amino)-2-oxoacetate], the EC50 was less than 1000 nM. Under `CCCCCOc1ccc(N(C(=O)CN(C)C)c2nc(-c3cccnc3)cs2)cc1C(F)(F)F` [Compound 41, 2-(dimethylamino)-N-(4-(pentyloxy)-3-(trifluoromethyl)phenyl)-N-(4-(pyridin-3-yl)thiazol-2-yl)acetamide] stands less than 1000 nM; under `CCCCCOc1ccc(N(C(=O)CC(=O)OC)c2nc(-c3ccc(F)cc3)cs2)cc1F` [Compound 42, methyl 3-((3-fluoro-4-(pentyloxy)phenyl)(4-(4-fluorophenyl)thiazol-2-yl)amino)-3-oxopropanoate], less than 1000 nM. As for `CCCCCOc1ccc(N(C(=O)CC(=O)OC)c2nc(-c3ccc(F)cc3)cs2)cc1C(F)(F)F` [Compound 43, methyl 3-((4-(4-fluorophenyl)thiazol-2-yl)(4-(pentyloxy)-3-(trifluoromethyl)phenyl)amino)-3-oxopropanoate], the EC50 is less than 1000 nM. Under `CCCCCCCCOc1ccc(N(C(=O)CC(=O)OC)c2nc(-c3ccc(F)cc3)cs2)cc1` [Compound 44, methyl 3-((4-(4-fluorophenyl)thiazol-2-yl)(4-(octyloxy)phenyl)amino)-3-oxopropanoate] stands less than 1000 nM. `CCCCCOc1ccc(N(C(=O)C(=O)OC)c2nc(-c3ccc(F)cc3)cs2)cc1F` [Compound 45, methyl 2-((3-fluoro-4-(pentyloxy)phenyl)(4-(4-fluorophenyl)thiazol-2-yl)amino)-2-oxoacetate]: the EC50 was less than 1000 nM. For the molecule `CCCCCOc1ccc(N(C(=O)OC)c2nc(-c3ccc(F)cc3)cs2)cc1F` [Compound 46, methyl 3-fluoro-4-(pentyloxy)phenyl(4-(4-fluorophenyl)thiazol-2-yl)carbamate], the EC50 is 1000 to 10000 nM. Turning to `CCCCCOc1ccc(N(C(=O)OC)c2nc(-c3ccc(F)cc3)cs2)cc1C(F)(F)F` [Compound 47, methyl 4-(4-fluorophenyl)thiazol-2-yl(4-(pentyloxy)-3-(trifluoromethyl)phenyl)carbamate], the EC50 was less than 1000 nM. In the case of `CCCCCCCCOc1ccc(N(C(=O)OC)c2nc(-c3ccc(F)cc3)cs2)cc1` [Compound 48, methyl 4-(4-fluorophenyl)thiazol-2-yl(4-(octyloxy)phenyl)carbamate], the 50% effective concentration (EC50) was 1000 to 10000 nM. Regarding `CCCCCOc1ccc(N(C(N)=O)c2nc(-c3cccnc3)cs2)cc1C(F)(F)F` [Compound 49, 1-(4-(pentyloxy)-3-(trifluoromethyl)phenyl)-1-(4-(pyridin-3-yl)thiazol-2-yl)urea], the EC50 was less than 1000 nM. Under `CCCCCOc1ccc(N(C=O)c2nc(-c3cccnc3)cs2)cc1C(F)(F)F` [Compound 50, N-(4-(pentyloxy)-3-(trifluoromethyl)phenyl)-N-(4-(pyridin-3-yl)thiazol-2-yl)formamide] stands less than 1000 nM; under `CCCCCN(C)c1ccc(N(C(=O)COC(C)=O)c2nc(-c3cccnc3)cs2)cc1C(F)(F)F` [Compound 51, 2-((4-(methyl(pentyl)amino)-3-(trifluoromethyl)phenyl)(4-(pyridin-3-yl)thiazol-2-yl)amino)-2-oxoethyl acetate], less than 1000 nM; under `CCCCCN(C)c1ccc(N(C(=O)c2cc(C)on2)c2nc(-c3cccnc3)cs2)cc1C(F)(F)F` [Compound 52, 5-methyl-N-(4-(methyl(pentyl)amino)-3-(trifluoromethyl)phenyl)-N-(4-(pyridin-3-yl)thiazol-2-yl)isoxazole-3-carboxamide], less than 1000 nM.

Usually EC50 stands for the concentration that produces a half-maximal response.

Source of the values: patent publication US20070213301A1 (ACHILLION PHARMACEUTICALS, INC., priority 2006, published 2007).
